Experiments:
[1] = Mutagenicity in Salmonella typhimurium TA98 assessed as number of revertant colonies at 5000 ug per plate incubated for 90 mins by AMES test (reference value: 22.67 +/- 0.58); assay type: toxicity, Salmonella enterica subsp. enterica serovar Typhimurium; conditions: in vivo, 1.5 h, dose 5000 µg
[2] = Mutagenicity in Salmonella typhimurium TA102 assessed as number of revertant colonies at 50 ug per plate incubated for 90 mins in presence of S9 fraction by AMES test (reference value: 130.00 +/- 6.93); assay type: toxicity, subcellular, Salmonella enterica subsp. enterica serovar Typhimurium; conditions: s9, 1.5 h, dose 50 µg
[3] = Mutagenicity in Salmonella typhimurium TA100 assessed as number of revertant colonies at 150 ug per plate incubated for 90 mins by AMES test (reference value: 88.00 +/- 2.65); assay type: toxicity, Salmonella enterica subsp. enterica serovar Typhimurium; conditions: in vivo, 1.5 h, dose 150 µg
[4] = Mutagenicity in Salmonella typhimurium TA98 assessed as mutagenic index ratio at 1500 ug per plate incubated for 90 mins by AMES test; assay type: toxicity, Salmonella enterica subsp. enterica serovar Typhimurium; conditions: in vivo, 1.5 h, dose 1500 µg
[5] = Mutagenicity in Salmonella typhimurium TA102 assessed as mutagenic index ratio at 1500 ug per plate incubated for 90 mins in presence of S9 fraction by AMES test; assay type: toxicity, subcellular, Salmonella enterica subsp. enterica serovar Typhimurium; conditions: s9, 1.5 h, dose 1500 µg
[6] = Cytotoxicity against monkey LLC-MK2 cells incubated for 72 hrs by MTT assay; assay type: toxicity, cell-based, Macaca mulatta; conditions: rhesus monkey
[7] = Mutagenicity in Salmonella typhimurium TA102 assessed as number of revertant colonies at 150 ug per plate incubated for 90 mins in presence of S9 fraction by AMES test (reference value: 130.00 +/- 6.93); assay type: toxicity, subcellular, Salmonella enterica subsp. enterica serovar Typhimurium; conditions: s9, 1.5 h, dose 150 µg
[8] = Mutagenicity in Salmonella typhimurium TA98 assessed as mutagenic index ratio at 500 ug per plate incubated for 90 mins in presence of S9 fraction by AMES test; assay type: toxicity, subcellular, Salmonella enterica subsp. enterica serovar Typhimurium; conditions: s9, 1.5 h, dose 500 µg
[9] = Mutagenicity in Salmonella typhimurium TA100 assessed as number of revertant colonies at 5000 ug per plate incubated for 90 mins in presence of S9 fraction by AMES test (reference value: 122.67 +/- 5.03); assay type: toxicity, subcellular, Salmonella enterica subsp. enterica serovar Typhimurium; conditions: s9, 1.5 h, dose 5000 µg
[10] = Mutagenicity in Salmonella typhimurium TA100 assessed as mutagenic index ratio at 1500 ug per plate incubated for 90 mins in presence of S9 fraction by AMES test; assay type: toxicity, subcellular, Salmonella enterica subsp. enterica serovar Typhimurium; conditions: s9, 1.5 h, dose 1500 µg
[11] = Mutagenicity in Salmonella typhimurium TA98 assessed as number of revertant colonies at 1500 ug per plate incubated for 90 mins by AMES test (reference value: 22.67 +/- 0.58); assay type: toxicity, Salmonella enterica subsp. enterica serovar Typhimurium; conditions: in vivo, 1.5 h, dose 1500 µg
[12] = Mutagenicity in Salmonella typhimurium TA100 assessed as number of revertant colonies at 5000 ug per plate incubated for 90 mins by AMES test (reference value: 88.00 +/- 2.65); assay type: toxicity, Salmonella enterica subsp. enterica serovar Typhimurium; conditions: in vivo, 1.5 h, dose 5000 µg
[13] = Mutagenicity in Salmonella typhimurium TA100 assessed as mutagenic index ratio at 150 ug per plate incubated for 90 mins in presence of S9 fraction by AMES test; assay type: toxicity, subcellular, Salmonella enterica subsp. enterica serovar Typhimurium; conditions: s9, 1.5 h, dose 150 µg
[14] = Mutagenicity in Salmonella typhimurium TA100 assessed as mutagenic index ratio at 500 ug per plate incubated for 90 mins by AMES test; assay type: toxicity, Salmonella enterica subsp. enterica serovar Typhimurium; conditions: in vivo, 1.5 h, dose 500 µg
[15] = Mutagenicity in Salmonella typhimurium TA102 assessed as number of revertant colonies at 500 ug per plate incubated for 90 mins in presence of S9 fraction by AMES test (reference value: 130.00 +/- 6.93); assay type: toxicity, subcellular, Salmonella enterica subsp. enterica serovar Typhimurium; conditions: s9, 1.5 h, dose 500 µg
[16] = Mutagenicity in Salmonella typhimurium TA100 assessed as number of revertant colonies at 50 ug per plate incubated for 90 mins by AMES test (reference value: 88.00 +/- 2.65); assay type: toxicity, Salmonella enterica subsp. enterica serovar Typhimurium; conditions: in vivo, 1.5 h, dose 50 µg
[17] = Mutagenicity in Salmonella typhimurium TA102 assessed as mutagenic index ratio at 500 ug per plate incubated for 90 mins in presence of S9 fraction by AMES test; assay type: toxicity, subcellular, Salmonella enterica subsp. enterica serovar Typhimurium; conditions: s9, 1.5 h, dose 500 µg
[18] = Mutagenicity in Salmonella typhimurium TA98 assessed as number of revertant colonies at 1500 ug per plate incubated for 90 mins in presence of S9 fraction by AMES test (reference value: 21.00 +/- 1.00); assay type: toxicity, subcellular, Salmonella enterica subsp. enterica serovar Typhimurium; conditions: s9, 1.5 h, dose 1500 µg
[19] = Mutagenicity in Salmonella typhimurium TA102 assessed as mutagenic index ratio at 150 ug per plate incubated for 90 mins in presence of S9 fraction by AMES test; assay type: toxicity, subcellular, Salmonella enterica subsp. enterica serovar Typhimurium; conditions: s9, 1.5 h, dose 150 µg
[20] = Substrate activity at Trypanosoma cruzi type I nitro reductase assessed as reduction in NADH incubated for 120 sec by spectrophotometric analysis
Leishmania amazonensis = assay: Antileishmanial activity against Leishmania amazonensis IFLA/BR/1967/PH8 amastigotes infected in murine peritoneal macrophages incubated for 24 hrs by Giemsa staining based analysis; assay type: functional, organism-based; conditions: IFLA/BR/1967/PH8, Peritoneal macrophage
[21] = Mutagenicity in Salmonella typhimurium TA102 assessed as mutagenic index ratio at 50 ug per plate incubated for 90 mins in presence of S9 fraction by AMES test; assay type: toxicity, subcellular, Salmonella enterica subsp. enterica serovar Typhimurium; conditions: s9, 1.5 h, dose 50 µg
[22] = Mutagenicity in Salmonella typhimurium TA100 assessed as number of revertant colonies at 150 ug per plate incubated for 90 mins in presence of S9 fraction by AMES test (reference value: 122.67 +/- 5.03); assay type: toxicity, subcellular, Salmonella enterica subsp. enterica serovar Typhimurium; conditions: s9, 1.5 h, dose 150 µg
[23] = Mutagenicity in Salmonella typhimurium TA98 assessed as mutagenic index ratio at 150 ug per plate incubated for 90 mins by AMES test; assay type: toxicity, Salmonella enterica subsp. enterica serovar Typhimurium; conditions: in vivo, 1.5 h, dose 150 µg
[24] = Mutagenicity in Salmonella typhimurium TA98 assessed as number of revertant colonies at 50 ug per plate incubated for 90 mins by AMES test (reference value: 22.67 +/- 0.58); assay type: toxicity, Salmonella enterica subsp. enterica serovar Typhimurium; conditions: in vivo, 1.5 h, dose 50 µg
[25] = Mutagenicity in Salmonella typhimurium TA102 assessed as number of revertant colonies at 5000 ug per plate incubated for 90 mins in presence of S9 fraction by AMES test (reference value: 130.00 +/- 6.93); assay type: toxicity, subcellular, Salmonella enterica subsp. enterica serovar Typhimurium; conditions: s9, 1.5 h, dose 5000 µg
[26] = Mutagenicity in Salmonella typhimurium TA98 assessed as number of revertant colonies at 150 ug per plate incubated for 90 mins by AMES test (reference value: 22.67 +/- 0.58); assay type: toxicity, Salmonella enterica subsp. enterica serovar Typhimurium; conditions: in vivo, 1.5 h, dose 150 µg
[27] = Mutagenicity in Salmonella typhimurium TA100 assessed as mutagenic index ratio at 500 ug per plate incubated for 90 mins in presence of S9 fraction by AMES test; assay type: toxicity, subcellular, Salmonella enterica subsp. enterica serovar Typhimurium; conditions: s9, 1.5 h, dose 500 µg
[28] = Mutagenicity in Salmonella typhimurium TA102 assessed as number of revertant colonies at 150 ug per plate incubated for 90 mins by AMES test (reference value: 110.67 +/- 20.15); assay type: toxicity, Salmonella enterica subsp. enterica serovar Typhimurium; conditions: in vivo, 1.5 h, dose 150 µg
[29] = Mutagenicity in Salmonella typhimurium TA100 assessed as mutagenic index ratio at 150 ug per plate incubated for 90 mins by AMES test; assay type: toxicity, Salmonella enterica subsp. enterica serovar Typhimurium; conditions: in vivo, 1.5 h, dose 150 µg
[30] = Mutagenicity in Salmonella typhimurium TA98 assessed as number of revertant colonies at 150 ug per plate incubated for 90 mins in presence of S9 fraction by AMES test (reference value: 21.00 +/- 1.00); assay type: toxicity, subcellular, Salmonella enterica subsp. enterica serovar Typhimurium; conditions: s9, 1.5 h, dose 150 µg
[31] = Mutagenicity in Salmonella typhimurium TA98 assessed as mutagenic index ratio at 500 ug per plate incubated for 90 mins by AMES test; assay type: toxicity, Salmonella enterica subsp. enterica serovar Typhimurium; conditions: in vivo, 1.5 h, dose 500 µg
[32] = Mutagenicity in Salmonella typhimurium TA100 assessed as mutagenic index ratio at 5000 ug per plate incubated for 90 mins by AMES test; assay type: toxicity, Salmonella enterica subsp. enterica serovar Typhimurium; conditions: in vivo, 1.5 h, dose 5000 µg

With O=[N+]([O-])c1ncn(Cc2cn(-c3ccc(OC(F)(F)F)cc3)nn2)n1 the Activity [1] was 25, the Activity [2] was 162.67 and the Activity [3] was 96. The Ratio [4] was 0.8, the Ratio [5] was 1.3 and the CC50 at 72 h [6] was > 50 µM. For the same molecule, the Activity [7] was 172.33, the Ratio [8] was 1.1 and the Activity [9] was 47. It also gave a Ratio [10] of 0.8, an Activity [11] of 20.33 and an Activity [12] of 80.67. It also gave a Ratio [13] of 0.9, a Ratio [14] of 0.9 and an Activity [15] of 190. The Activity [16] was 104.33, the Ratio [17] was 1.4 and the Activity [18] was 22. For the same molecule, the Ratio [19] was 1.3, the pIC50 [20] was 7.04 and the IC50 (Leishmania amazonensis) was 4.7 µM. It also gave a Ratio [21] of 0.2, an Activity [22] of 117.33 and a Ratio [23] of 1. The Activity [24] was 18.33, the Activity [25] was 131 and the Activity [26] was 24.67. It also gave a Ratio [27] of 1, an Activity [28] of 159.33 and a Ratio [29] of 1. It also gave an Activity [30] of 23.33, a Ratio [31] of 0.9 and a Ratio [32] of 0.9.
